Here are results for twelve compounds from patent EP0349941A2, “Morpholino derivatives of rhodomycins, process for their preparation and their use” (BEHRINGWERKE Aktiengesellschaft, priority 1988, dated 1990).

Converted amounts (≈) assume the structure as drawn. Like-named read-outs stand apart in the source and are kept apart here.

Test [1] concerns L1210. The experiment in a line: Proliferation test (MTT reduction), L1210. In kind it is cell-based, Maus. As to conditions: L1210 cells, 72 h incubation; for IC50: Mus musculus, read-out: IC₅₀ MTT-ASSAY L1210. Here is the method: (§1) L1210, A 549 oder HT 29 in exponentieller Wachstumsphase wurden in einer Zelldichte von 5 x 10³ Zellen/ml in RPMI 1640 in einer 96 Well Mikrotiterplatte für 72 h mit unterschiedlichen Konzentrationen der Testsubstanz bei 37° C, 5 % CO₂ und 95 % relativer Luftfeuchte inkubiert. Kontrollexperimente erhielten anstelle der Testsubstanz lediglich Wachstumsmedium. Für jede Testsubstanz sowie für die Kontrolle wurden 4fach Bestimmungen angesetzt. Nach 65 h Inkubation wurden 50 µl einer MTT-Lösung (2,5 mg/ml in Phosphat-gepuffertem Kochsalz) zugegeben. In Gegenwart lebender Zellen wurde MTT zu einem dunkelroten unlöslichen Formazanfarbstoff reduziert. Diese Reaktion war nach 7 h (L1210 Zellen) bzw. nach 24 h (A 549, HT 29 Zellen) beendet und das überstehende Medium wird sorgfältig abgesaugt. Der unlösliche Farbstoff wurde durch Zugabe von 100 µl DMSO aufgelöst und die Extinktion der so entstehenden Lösung anschließend für jedes Well in einem Multiscan Photometer 340 CC der Fa. Flow bei einer Wellenlänge von 492 nm vermessen.
(§2) Aus dem Verhältnis der Extinktionen behandelter und unbehandelter Zellen ergab sich eine Dosis-Wirkungskurve, aus der die Konzentration, die gerade 50 % der Zellen (IC₅₀) abtötet, abgelesen werden konnte. Für wiederholte Untersuchungen betrug der Variationskoeffizient weniger als 15 %.
For orientation: Formazan colour is commonly taken as a measure of viable cells.

Test [2] has as its system HT 29. Nature of the test: Proliferation test (MTT reduction), HT 29. The following applies: HT 29 cells, 72 h incubation; for IC50: Homo sapiens, read-out: IC₅₀ MTT-ASSAY HT 29. In kind it is cell-based, menschlichen. The method, then:
as §1, §2

Test [3] relates to A 549. The experiment in a line: Proliferation test (MTT reduction), A 549. The format is cell-based, menschlichen. As to conditions: A 549 cells, 72 h incubation; for IC50: Homo sapiens, A549, read-out: IC₅₀ MTT-ASSAY A 549. Here is the method: as §1, §2
Test [4] relates to L1210 Leukämiezellen. The experiment in a line: Cytotoxicity against L1210 leukaemia cells (stem cell assay, colony formation in soft agar). The format is cell-based, Maus. The following applies: colonies counted after 5-7 days; for IC50: Mus musculus, L1210. Here is the method: Der Test wurde entsprechend der von Hamburger und Salmon beschriebenen Methodik mit den unten beschriebenen Modifikationen durchgeführt.
Konditioniertes Medium wurde durch McCoy 5A Medium ersetzt. Als Folge der hohen Klonierungsrate der L1210 Leukämiezellen in Soft Agar wurde die Anzahl an Tumorzellen pro Platte auf 5 x 10² reduziert.
Die Zellen wurden mit unterschiedlichen Konzentrationen der Testsubstanz für 1 h bei 37° C inkubiert. Anschlie-ßend wurden die Zellen zweimal mit McCoy 5A Medium gewaschen und anschließend in einem Zwei-Schichten-Agar System als obere Schicht entsprechend der Methode von Hamburger und Salmon ausplattiert.
Zusätzliche Parallelexperimente wurden unter Verwendung einer kontinuierlichen Inkubationszeit durchgeführt, wobei unterschiedliche Konzentrationen der Testsubstanz der oberen Agarschicht vor Ausplattieren der Zellen zugemischt wurden.
Die Platten wurden in einem Brutschrank mit 5 % CO₂, 20 % O₂ und 95 % relativer Luftfeuchte für 5-7 Tage inkubiert. Nach dieser Zeit wurden Kolonien mit einem Durchmesser von 60 µm mit Hilfe eines Invertoskopes gezählt.
Die Ergebnisse wurden angegeben als prozentualer Anteil der Kolonien in behandelten versus unbehandelten Gruppen. Der Variationskoeffizient bei wiederholten Experimenten war kleiner als 15 %.
Die an den getesteten Verbindungen erhaltenen Resultate sind in der Tabelle 1 enthalten. Aus der Dosis-Wirkungskurve wurde die IC₅₀ für die kontinuierliche und einstündige Inkubation bestimmt (Tab. 1).

Test [5] concerns L1210 Leukämie der Maus. The experiment in a line: In vivo efficacy against L1210 leukaemia of the mouse. The following applies: L1210 tumour model in vivo. The method, then: Ascitesflüssigkeit wurde unter sterilen Bedingungen DBA2 Mäusen (weiblich, 18 - 20 g) 7 Tage nach Implantation entnommen. Der Ascites wurde dreimal mit PBS gewaschen, gezählt und auf eine Zellzahl von 10⁶ in 0.2 ml PBS eingestellt. 10⁶ Zellen, suspendiert in 0.2 ml PBS, wurden anschlie-ßend DBF1 Mäusen (weiblich, 18 - 20 g) intraperitoneal injiziert. 6 Tiere pro Gruppe wurden für jede Substanzkonzentration bzw. als Kontrolle eingesetzt.
Zur Ermittlung der antitumoralen Wirksamkeit wurden die Tiere am Tag 1 und 5 nach Injektion der Testsubstanz gewogen. Gewichtsverlust von mehr als 20 % am Tag 5 wurde als Indikator einer toxischen Substanzwirkung angesehen.
Am Ende des Experimentes (Tod aller Tiere oder überlebende Tiere am Tag 60) wurde die mittlere Überlebenszeit der Tiere in den jeweiligen Gruppen bestimmt, sofern am Tag 5 des Experimentes mindestens 65 % der Tiere noch gelebt hatten. Die mittlere Überlebenszeit wurde ausschließlich für im Verlaufe des Experimentes sterbende Tiere bestimmt. Langzeitüberlebende (LTS) wurden bei dieser Berechnung nicht berücksichtigt und gesondert aufgeführt.
Aus der mittleren Überlebenszeit (MSTr) der behandelten Gruppen sowie der Kontrollgruppen (MSTc) wurde die antitumorale Wirksamkeit (T/C) für die jeweilige Substanzkonzentration in Prozent der unbehandelten Kontrolle entsprechend der folgenden Formel bestimmt: [formula] […]

Where [6] appears, read: 1 h incubation at 37° C, read-out: IC₅₀ STEM CELL ASSAY 1 h exp. L1210.
Where [7] appears, read: continuous incubation, read-out: IC₅₀ STEM CELL ASSAY cont. exp. L1210.

As to “7-0-(3′-(3˝- oder 5˝-Cyano-6˝(S)-hydroxymethyl-2˝(S)methoxy-4˝-morpholinyl)-2′,3′,6′-tri-desoxy-alpha-L-lyxohexopyranosyl)-ß-rhodomycinon [XXV]”, the “IC₅₀ MTT-ASSAY L1210” value in test [1] was 0.0005 µg/mL. For the same compound, the “IC₅₀ MTT-ASSAY HT 29” value in test [2] worked out at 0.002 µg/mL. In addition, the “IC₅₀ MTT-ASSAY A 549” value in test [3] is 0.003 µg/mL. Also, the “IC₅₀ STEM CELL ASSAY 1 h exp. L1210” value in test [4] (1 h incubation at 37° C) came to 0.007 µg/mL.

As to `CC[C@@]1(O)C[C@H](O[C@H]2C[C@H](N3C[C@@H](OC)O[C@@H](C)C3)[C@H](O)[C@H](C)O2)c2c(O)c3c(c(O)c2[C@H]1O)C(=O)c1cccc(O)c1C3=O` [XIX, 7-0-(3′-(6˝(S)-methyl-2˝(S)-methoxy-4˝-morpholinyl)-2′, 3′,6′-tridesoxy-alpha-L-lyxohexopyranosyl)-ß-rhodomycinon], the IC50 in test [4] (setting [6]) worked out at 0.095 µg/mL (≈ 0.151 µM); in test [4] (setting [7]), 0.021 µg/mL (≈ 0.0334 µM).

Consider “7-0-(3′-(3˝ oder 5˝-Cyano-6˝(S)-hydroxymethyl-2˝(S)-methoxy-4˝-morpholinyl)-2′,3′,6′-tri-desoxy-alpha-L-lyxohexopyranosyl)-epsilon-isorhodomycinon [XXIII]”, for which the “IC₅₀ MTT-ASSAY L1210” value in test [1] is 0.0009 µg/mL. Further, the “IC₅₀ MTT-ASSAY HT 29” value in test [2] turned out to be 0.0031 µg/mL. The “IC₅₀ MTT-ASSAY A 549” value in test [3] was determined as 0.0021 µg/mL. Further, the “IC₅₀ STEM CELL ASSAY 1 h exp. L1210” value in test [4] (1 h incubation at 37° C) was determined as 0.027 µg/mL.

Consider `CC[C@@]1(O)C[C@H](O[C@H]2C[C@H](N3C[C@@H](CO)O[C@@H](OC)C3)[C@H](O)[C@H](C)O2)c2c(O)c3c(c(O)c2[C@H]1O)C(=O)c1cccc(O)c1C3=O` [XVII, 7-0-(3′-(6˝(S)-Hydroxymethyl-2˝(R)-methoxy-4˝-morpholinyl)-2′,3′,6′-tri-desoxy-alpha-L-lyxohexopyranosyl)-ß-rhodomycinon], for which the figures for the IC50 in test [4] (setting [6]) and in test [4] (setting [7]) were 1 µg/mL (≈ 1.55 µM) and 0.55 µg/mL (≈ 0.852 µM), respectively.

Regarding `CC[C@@]1(O)C[C@H](O[C@H]2C[C@H](N3C[C@@H](CO)O[C@H](OC)C3)[C@@H](O)[C@H](C)O2)c2c(O)c3c(c(O)c2[C@H]1C(=O)OC)C(=O)c1c(O)ccc(O)c1C3=O` [XV, 7-0-(3′-(6˝(S)-Hydroxymethyl-2˝(S)-methoxy-4˝-morpholinyl)-2′,3′,6′-tri-desoxy-alpha-L-arabinohexopyranosyl)epsilon-isorhodomycinon], the IC50 in test [1] is 0.035 µg/mL (≈ 0.0497 µM); in test [2], 0.03 µg/mL (≈ 0.0426 µM); in test [3] it was 0.038 µg/mL (≈ 0.054 µM); in test [4] (setting [6]), 0.32 µg/mL (≈ 0.455 µM); in test [4] (setting [7]), 0.078 µg/mL (≈ 0.111 µM).

Take `CC[C@@]1(O)C[C@H](O[C@H]2C[C@H](N3C[C@@H](CO)O[C@@H](n4cnc5c(N)ncnc54)C3)[C@H](O)[C@H](C)O2)c2c(O)c3c(c(O)c2[C@H]1C(=O)OC)C(=O)c1c(O)ccc(O)c1C3=O` [XIV]: the IC50 turned out to be 0.5 µg/mL (≈ 0.62 µM) in test [4] (setting [6]) and 1 µg/mL (≈ 1.24 µM) in test [4] (setting [7]).

Turning to `CC[C@@]1(O)C[C@H](O[C@H]2C[C@H](N3C[C@@H](CO)O[C@H](OC)C3)[C@H](O)[C@H](C)O2)c2c(O)c3c(c(O)c2[C@H]1C(=O)OC)C(=O)c1c(O)ccc(O)c1C3=O` [VIII, 7-0-(3′-(6˝(s)-Hydroxymethyl-2˝(s)-methoxy-4˝-morpholinyl)-2′,3′,6′-tri-desoxy-alpha-L-lyxohexopyranosyl)-epsilon-isorhodomycinon], the IC50 in test [1] was 0.009 µg/mL (≈ 0.0128 µM); in test [2], 0.035 µg/mL (≈ 0.0497 µM); in test [3], 0.038 µg/mL (≈ 0.054 µM); in test [4] (setting [6]), 0.95 µg/mL (≈ 1.35 µM); in test [4] (setting [7]), 0.029 µg/mL (≈ 0.0412 µM). Moreover, the “Wirkung in dem L1210 Tumormodell in vivo” value in test [5] is “kurativ wirksam”.

Consider `CCC1(O)CC(O[C@H]2C[C@H](N3CCOCC3)[C@H](O)[C@H](C)O2)c2c(O)c3c(c(O)c2C1C(=O)OC)C(=O)c1c(O)ccc(O)c1C3=O` (stereo partly drawn) [Verbindung 26, 7-0-(3′-(4˝-Morpholinyl)-2′,3′,6′-tridesoxy-alpha-L-lyxohexopyranosyl)-epsilon-isorhodomycinon], for which the “Wirkung in dem L1210 Tumormodell in vivo” value in test [5] is listed as “nur eine marginale Wirkung”.

`CC[C@@]1(O)C[C@H](O[C@H]2C[C@H](N3C[C@@H](CO)O[C@@H](OC)C3)[C@H](O)[C@H](C)O2)c2c(O)c3c(c(O)c2[C@H]1C(=O)OC)C(=O)c1c(O)ccc(O)c1C3=O` [IX, 7-0-(3′-(6˝(S)-Hydroxymethyl-2˝(R)-methoxy-4˝-morpholinyl)-2′,3′,6′-tri-desoxy-alpha-L-lyxohexopyranosyl)-epsilon-isorhodomycinon]: the IC50 in test [4] (setting [6]) turned out to be 1 µg/mL (≈ 1.42 µM); in test [4] (setting [7]) it was 0.12 µg/mL (≈ 0.171 µM).

“7-0-(3′-(3˝-oder 5˝-Cyano-6˝(S)-hydroxymethyl-2˝(S)-methoxy-4˝-morpholinyl)-2′,3′,6′-tri-desoxy-alpha-L-arabinohexopyranosyl)-epsilon-isorhodomycinon [XXIV]”: in test [1], the “IC₅₀ MTT-ASSAY L1210” value stood at 0.0071 µg/mL. The “IC₅₀ MTT-ASSAY HT 29” value in test [2] stood at 0.017 µg/mL. In test [3], the “IC₅₀ MTT-ASSAY A 549” value is 0.011 µg/mL. Further, the “IC₅₀ STEM CELL ASSAY 1 h exp. L1210” value in test [4] (1 h incubation at 37° C) stood at 0.034 µg/mL.

On to `CC[C@@]1(O)C[C@H](O[C@H]2C[C@H](N3C[C@H]4CO[C@@H](C3)O4)[C@H](O)[C@H](C)O2)c2c(O)c3c(c(O)c2[C@H]1O)C(=O)c1cccc(O)c1C3=O` [XX, 7-0-(3′-(2˝,6˝-Epoximethano-4˝-morpholinyl)-2′,3′,6′-tridesoxy-alpha-L-lyxohexopyranosyl)-ß-rhodomycinon], for which the IC50 in test [1] was 0.008 µg/mL (≈ 0.013 µM); in test [2], 0.036 µg/mL (≈ 0.0587 µM); in test [3] it was 0.014 µg/mL (≈ 0.0228 µM); in test [4] (setting [6]), 0.12 µg/mL (≈ 0.196 µM).

In the case of `CC[C@@]1(O)C[C@H](O[C@H]2C[C@H](N3C[C@@H](CO)O[C@H](OC)C3)[C@H](O)[C@H](C)O2)c2c(O)c3c(c(O)c2[C@H]1O)C(=O)c1cccc(O)c1C3=O` [XVI, 7-0-(3′-(6˝(S)-Hydroxymethyl-2˝(S)-methoxy-4˝-morpholinyl)-2′,3′,6′-tri-desoxy-alpha-L-lyxohexopyranosyl)-ß-rhodomycinon], the IC50 was found to be 0.036 µg/mL (≈ 0.0558 µM) in test [1]; 0.11 µg/mL (≈ 0.17 µM) in test [2]; 0.046 µg/mL (≈ 0.0712 µM) in test [3]; 0.15 µg/mL (≈ 0.232 µM) in test [4] (setting [6]); 0.026 µg/mL (≈ 0.0403 µM) in test [4] (setting [7]).
